Consider two compounds from patent US5945450A, “Naphthalene derivative” (Teijin Limited, priority 1994, dated 1999).

One assay has as its system IgG1. The assay can be described thus: In vivo inhibition of IgG1 production in TNP-KLH immunized mice. Further details: species or system BDF1 mice. As to conditions: 100 mg/kg/day subcutaneously, twice a day for 10 days, N=10. As for the experimental part: TNP-KLH (trinitrophenyl-keyhole-lymphet-hemocyanin) was prepared by the method as described in J. Immunol., 97:421-430, 1966 from KLH and trinitrobenzene sulfonic acid. A […] of TNP-KLH suspended in 0.2 ml of saline and 1 mg of aluminum hydroxide gel were injected into the peritoneal cavity of BDF1 mice (8 weeks old) for immunization. From the day of immunization onward, the compound of this invention listed in Table 5 was given subcutaneously to the same animal twice a day for 10 days (100 mg/kg/day, dissolved in 0.5% Tween 80 in saline, and N=10). To the control group, 0.5% Tween 80 in saline was given at the same time schedule (N=10). Ten days after immunization, blood was extracted from the heart, and the concentrations of IgE, IgG1 and IgM antibodies were determined by ELISA (Immunol. Lett., 23:251-256, 1990, and Eur. J. Immunol., 20:2499-2503, 1990). Inhibition (%) of the antibody production with respect to the control was calculated.

Assay [1] concerns leukotrien B4 (LTB4) production. The assay can be described thus: Inhibition of leukotrien B4 (LTB4) production in RBL-1 basophils. The format is cell-based. Particulars: Rattus norvegicus; RBL-1 cells, calcium ionophore A23187. As for the experimental part:
The basophils from rats of RBL-1 line (Dainippon Pharmaceutical Co.) cultured on DMEM (Dulbecco's modified Eagle medium) containing 10% FCS suspended in 10 mM HEPES-NaOH buffer (pH 7.4), 90 mM NaCl, 3.7 mM KCl, 0.9 mM CaCl2, 5.6mM glucose, and the compound of this invention listed in Table 8 as a test drug, to give a suspension of a density of 2×10^6 cells/ml. The suspension was allowed to stand at 37 for 5 minutes, and calcium ionophores A23187 were added thereto in such a manner that the concentration of […] was obtained in the end. The reaction was allowed to proceed at 37 for 10 minutes, and the supernatant was sampled for the ELISA assay (Cayman Chemical, Catalog No. 520111, and J. Immunol., 119:618-622, 1977) of leukotrien B4 (LTB4). IC50 of a given compound of this invention for inhibition of leukotrien production was calculated relative to the production of LTB4 when the compound was not coexistent.

For `O=C(Nc1ccccc1C(=O)O)c1ccc(Oc2ccc3ccccc3c2)cc1` [Compound No. 1104, 2-(4-(2-naphtyloxy)benzamide)benzoic Acid], the “Inhibition of antibody production (%) IgG1” value with IgG1 is listed as 24.4%. Further, the 50% inhibitory concentration (IC50) in assay [1] came out at 210 nM.

Turning to `O=C(Cc1ccc(Oc2ccc3ccccc3c2)cc1)Nc1ccccc1C(=O)O` [Compound No. 1126, 2-(4-(2-naphtyloxy)phenylacetamide)benzoic acid], in the assay with IgG1, the “Inhibition of antibody production (%) IgG1” value was determined as 46.8%. Further, the IC50 in assay [1] was 600 nM.

A word on the IC50: it is the concentration that inhibits the measured activity by half.
